Laboratory results reported in US20090143279A1 (priority 2007, published 2009).
Read-outs that look alike come from different tables or passages of the source. Where a SMILES comes first, the peptide text is derived from it.

How the values were obtained:
[1] = test system: mitochondrial membrane potential; format: cell-based, mouse; conditions: for ΔΨm (composite Z-score): normalized score vs mock-treated (DMSO) wells
reactive oxygen species = format: cell-based, mouse; conditions: for ROS (composite Z-score): normalized score vs mock-treated (DMSO) wells
cytochrome c = format: cell-based, mouse; conditions: for cyt c (composite Z-score): normalized score vs mock-treated (DMSO) wells
nuOXPHOS transcripts = format: cell-based, mouse; conditions: for nucOX (composite Z-score): normalized score vs mock-treated (DMSO) wells
OXPHOS gene expression = format: cell-based, mouse; conditions: for GE-HTS (composite Z-score): normalized score vs mock-treated (DMSO) wells
[2] = test system: cellular dehydrogenase activity; conditions: for MTT (composite Z-score): normalized score vs mock-treated (DMSO) wells
mtOXPHOS transcripts = format: cell-based, mouse; conditions: for mitoOX (composite Z-score): normalized score vs mock-treated (DMSO) wells
C2C12 myotubes = conditions: for Viability (composite Z-score): normalized score vs mock-treated (DMSO) wells
[3] = composite Z-score vs DMSO wells, Conc 20 μM
[4] = composite Z-score vs mock-treated (DMSO) wells, Conc 20 μM
[5] = 20 μM, composite Z-score vs DMSO
[6] = composite Z-score vs DMSO, Conc 20 μM

COc1ccc2c(c1)OCC(Cc1ccc(OC)c(OC)c1)C2=O (stereo not shown) [deoxysappanone B trimethyl ether]
ΔΨm (composite Z-score) ([1]; Conc 20 μM): −0.194 | ROS (composite Z-score) (reactive oxygen species; Conc 20 μM): 1.064 | cyt c (composite Z-score) (cytochrome c; Conc 20 μM): 0.336 | nucOX (composite Z-score) (nuOXPHOS transcripts; Conc 20 μM): 1.050 | GE-HTS (composite Z-score) (OXPHOS gene expression; Conc 20 μM): 0.993 | MTT (composite Z-score) ([2]; Conc 20 μM): −1.507 | mitoOX (composite Z-score) (mtOXPHOS transcripts; Conc 20 μM): 0.613 | Viability (composite Z-score) (C2C12 myotubes; Conc 20 μM): −0.068

CC(=O)O[C@@H]1CC2C(C)(CC[C@H](O)C2(C)C)C2CC[C@]3(C)C(=CC(=O)O[C@H]3c3ccoc3)C21C (stereo partly drawn) [3beta-hydroxydeoxodihydrodeoxygedunin]
ΔΨm (composite Z-score) ([1]; Conc 20 μM): 1.048 | ROS (composite Z-score) (reactive oxygen species; Conc 20 μM): 1.488 | cyt c (composite Z-score) (cytochrome c; Conc 20 μM): 0.142 | nucOX (composite Z-score) (nuOXPHOS transcripts; Conc 20 μM): −0.849 | GE-HTS (composite Z-score) (OXPHOS gene expression; Conc 20 μM): −0.747 | MTT (composite Z-score) ([2]; Conc 20 μM): −0.656 | mitoOX (composite Z-score) (mtOXPHOS transcripts; Conc 20 μM): −0.359 | Viability (composite Z-score) (C2C12 myotubes; Conc 20 μM): −1.397

CC(C)=CCC1=C(O)C(=O)c2ccccc2C1=O [lapachol]
ΔΨm [1, 3]: 0.035 | ROS (reactive oxygen species; [3]): −0.544 | cyt c (cytochrome c; [3]): 0.325 | nucOX (nuOXPHOS transcripts; [3]): −1.308 | GE-HTS (OXPHOS gene expression; [3]): −1.316 | MTT [2, 3]: −1.211 | mitoOX (mtOXPHOS transcripts; [3]): −1.077 | Viability (C2C12 myotubes; [3]): −0.409

C=C(C)[C@H]1COc2cc3oc(=O)ccc3cc2O1 [obliquin]
ΔΨm [1, 4]: 0.088 | ROS (reactive oxygen species; [4]): 0.977 | cyt c (cytochrome c; [4]): −1.172 | nucOX (nuOXPHOS transcripts; [4]): −0.459 | GE-HTS (OXPHOS gene expression; [4]): −0.313 | MTT [2, 4]: −0.268 | mitoOX (mtOXPHOS transcripts; [4]): 0.105 | Viability (C2C12 myotubes; [4]): 0.539

NS(=O)(=O)c1cc(C2(O)NC(=O)c3ccccc32)ccc1Cl (stereo not shown) [chlorthalidone]
ΔΨm [1]: −0.750 | ΔΨm [1, 5]: −0.257 | ROS (reactive oxygen species): 1.047 | ROS (reactive oxygen species; [5]): 1.655 | cyt c (cytochrome c): 0.531 | cyt c (cytochrome c; [5]): 0.066 | nucOX (nuOXPHOS transcripts): −0.009 | nucOX (nuOXPHOS transcripts; [5]): 0.646 | GE-HTS (OXPHOS gene expression): −0.236 | GE-HTS (OXPHOS gene expression; [5]): 0.793 | MTT [2]: −1.736 | MTT [2, 5]: −1.134 | mitoOX (mtOXPHOS transcripts): −0.641 | mitoOX (mtOXPHOS transcripts; [5]): 0.877 | Viability (C2C12 myotubes): 0.081 | Viability (C2C12 myotubes; [5]): 0.308

CC(C)C[C@H](N)C(=O)N[C@@H](C)C(=O)O [L-leucyl-L-alanine] (H-Leu-Ala-OH)
ΔΨm [1, 6]: −0.307 | ROS (reactive oxygen species; [6]): 0.301 | cyt c (cytochrome c; [6]): −0.861 | nucOX (nuOXPHOS transcripts; [6]): 0.465 | GE-HTS (OXPHOS gene expression; [6]): 0.365 | MTT [2, 6]: −0.320 | mitoOX (mtOXPHOS transcripts; [6]): 0.093 | Viability (C2C12 myotubes; [6]): −0.600

CC1(C)C(=O)C=C[C@]2(C)[C@H]3CC[C@@]4(C)[C@H](c5ccoc5)OC(=O)[C@H]5O[C@]54[C@]3(C)[C@H](O)C[C@@H]12 [deacetylgedunin]
ΔΨm [1, 4]: 0.349 | ROS (reactive oxygen species; [4]): −0.966 | cyt c (cytochrome c; [4]): −0.489 | nucOX (nuOXPHOS transcripts; [4]): −0.244 | GE-HTS (OXPHOS gene expression; [4]): −0.322 | MTT [2, 4]: −0.958 | mitoOX (mtOXPHOS transcripts; [4]): −0.484 | Viability (C2C12 myotubes; [4]): −0.032

O=C(O)c1cccc(O)c1O [pyrocatechuic acid]
ΔΨm [1, 6]: −1.204 | ROS (reactive oxygen species; [6]): 1.147 | cyt c (cytochrome c; [6]): −0.018 | nucOX (nuOXPHOS transcripts; [6]): −0.324 | GE-HTS (OXPHOS gene expression; [6]): −0.386 | MTT [2, 6]: −1.800 | mitoOX (mtOXPHOS transcripts; [6]): −0.367 | Viability (C2C12 myotubes; [6]): −1.076

C=CC(C1=CC(=O)C(OC)=CC1=O)c1ccc(O)cc1 (stereo not shown) [4-methoxy-4′-hydroxy-dalbergione]
ΔΨm [1, 4]: 0.406 | ROS (reactive oxygen species; [4]): 0.639 | cyt c (cytochrome c; [4]): 0.803 | nucOX (nuOXPHOS transcripts; [4]): −1.406 | GE-HTS (OXPHOS gene expression; [4]): −1.401 | MTT [2, 4]: −0.877 | mitoOX (mtOXPHOS transcripts; [4]): −1.071 | Viability (C2C12 myotubes; [4]): 1.548

CC1CCC(C(C)C)C(OC(=O)c2ccccc2)C1 (stereo not shown) [menthyl benzoate]
ΔΨm (composite Z-score) ([1]; Conc 20 μM): 0.016 | ROS (composite Z-score) (reactive oxygen species; Conc 20 μM): 1.375 | cyt c (composite Z-score) (cytochrome c; Conc 20 μM): −0.724 | nucOX (composite Z-score) (nuOXPHOS transcripts; Conc 20 μM): 0.047 | GE-HTS (composite Z-score) (OXPHOS gene expression; Conc 20 μM): −0.115 | MTT (composite Z-score) ([2]; Conc 20 μM): −1.026 | mitoOX (composite Z-score) (mtOXPHOS transcripts; Conc 20 μM): −0.336 | Viability (composite Z-score) (C2C12 myotubes; Conc 20 μM): −0.151

NC(=O)c1ccc[n+]([C@@H]2O[C@H](COP(=O)([O-])OP(=O)(O)OC[C@H]3O[C@@H](n4cnc5c(N)ncnc54)[C@H](OP(=O)(O)O)[C@@H]3O)[C@@H](O)[C@H]2O)c1
ΔΨm [1, 5]: −0.582 | ROS (reactive oxygen species; [5]): −0.038 | cyt c (cytochrome c; [5]): 0.101 | nucOX (nuOXPHOS transcripts; [5]): −0.307 | GE-HTS (OXPHOS gene expression; [5]): −0.424 | MTT [2, 5]: −1.286 | mitoOX (mtOXPHOS transcripts; [5]): −0.615 | Viability (C2C12 myotubes; [5]): −0.562

COc1ccc2cc([C@H](C)CO)ccc2c1 [naproxol]
ΔΨm [1, 6]: −0.500 | ROS (reactive oxygen species; [6]): −0.319 | cyt c (cytochrome c; [6]): 0.993 | nucOX (nuOXPHOS transcripts; [6]): −1.214 | GE-HTS (OXPHOS gene expression; [6]): −0.895 | MTT [2, 6]: −1.522 | mitoOX (mtOXPHOS transcripts; [6]): −0.018 | Viability (C2C12 myotubes; [6]): 0.249

COC(=O)c1cccc2cc(OC)c(OC)c(OC)c2c1=O
ΔΨm [1, 4]: −0.254 | ROS (reactive oxygen species; [4]): 0.800 | cyt c (cytochrome c; [4]): −0.229 | nucOX (nuOXPHOS transcripts; [4]): 0.287 | GE-HTS (OXPHOS gene expression; [4]): 0.231 | MTT [2, 4]: −2.317 | mitoOX (mtOXPHOS transcripts; [4]): 0.117 | Viability (C2C12 myotubes; [4]): −0.836
